Where two headings read alike, the source gives them in different places.
Assays:
[1] = target: GDP-bound KRAS protein (aa 1-169), containing both G12C and C118A amino acid substitutions (Homo sapiens, UniProt P01116, C118A/G12C); test: Coupled nucleotide exchange assay (SOS-mediated, AlphaScreen); format: biochemical; details: 5 min compound pre-incubation
[2] = system: Phosphorylation of ERK1/2 in MIA PaCa-2 cells; test: Phospho-ERK1/2 MSD assay in MIA PaCa-2 cells; format: cell-based; details: read-out: p-ERK IC50 (2 h; MIA PaCa-2), 2 h compound treatment
Summary of the method: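 IC50 comes from a 4-parameter logistic fit of MSD phospho-ERK1/2 signal in lysates. Before lysis, MIA PaCa-2 or A549 cells were exposed to titrated compound for 2 or 4 h at 37 °C, followed by a 10 min 10 ng/mL EGF stimulus.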

Sequence of GDP-bound KRAS protein (aa 1-169), containing both G12C and C118A amino acid substitutions (P01116 1-169 isoform P01116-2 G12C/C118A): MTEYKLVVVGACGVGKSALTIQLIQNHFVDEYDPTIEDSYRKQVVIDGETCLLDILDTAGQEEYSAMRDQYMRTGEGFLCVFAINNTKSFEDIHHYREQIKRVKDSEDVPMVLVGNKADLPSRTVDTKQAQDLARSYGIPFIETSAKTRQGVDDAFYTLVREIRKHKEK

SMILES	Coupled exchange IC50 (5 min) [1]	IC50 ([2]; Homo sapiens, MIA PaCa-2, 2 h) [nM]	IC50 ([1]; read-out: Coupled exchange IC50 (5 min)) [nM]	IC50 [2] [nM]
C=CC(=O)N1C[C@H](C)N(c2nc(=O)n(-c3c(C)cccc3C(C)C)c3nc(-c4c(O)cccc4F)c(F)cc23)[C@@H](C)C1 (single isomer, unassigned) [Example 63-3]	0.059 | nda μM	108	–	–
C=CC(=O)N1CCN(c2nc(=O)n(-c3c(C)cc(OC)nc3C(C)C)c3nc(-c4ccccc4F)c(Cl)cc23)[C@@H](C)C1 [Example 54-105, 6-chloro-7-(2-fluorophenyl)-1-(6-methoxy-4-methyl-2-(2-propanyl)-3-pyridinyl)-4-((2S)-2-methyl-4-(2-propenoyl)-1-piperazinyl) pyrido[2,3-d]pyrimidin-2(1H)-one]	0.07 | nda μM	89	–	–
C=CC(=O)N1CCN(c2nc(=O)n(-c3ccccc3C(C)C)c3nc(-c4nc(N)cc5ccccc45)c(Cl)cc23)[C@@H](C)C1 [Example 70-2, 7-(3-amino-1-isoquinolinyl)-6-chloro-4-((2S)-2-methyl-4-(2-propenoyl)-1-piperazinyl)-1-(2-(2-propanyl)phenyl)pyrido[2,3-d]pyrimidin-2(1H)-one]	0.184 | nda μM	213	–	–
C=CC(=O)N1CCN(c2nc(=O)n(-c3c(C)cnn3C(C)C)c3nc(-c4ccc(F)cc4F)c(Cl)cc23)[C@@H](C)C1 [Example 54-71, 6-chloro-7-(2,4-difluorophenyl)-1-(4-methyl-1-(2-propanyl)-1H-pyrazol-5-yl)-4-((2S)-2-methyl-4-(2-propenoyl)-1-piperazinyl) pyrido[2,3-d]pyrimidin-2(1H)-one]	0.174 | nda μM	164	–	–
C=CC(=O)N1CCN(c2nc(=O)n(-c3c(C(N)=O)cccc3C(C)C)c3nc(-c4ccccc4F)c(Cl)cc23)[C@@H](C)C1 (single isomer, unassigned) [Example 142-2]	0.029 | nda μM	29	–	–
C=CC(=O)N1CCN(c2nc(=O)n(-c3ccccc3S(F)(F)(F)(F)F)c3nc(-c4c(O)cccc4F)c(Cl)cc23)[C@@H](C)C1 [Example 56-1, 6-Chloro-7-(2-fluoro-6-hydroxy-phenyl)-4-[(2S)-2-methyl-4-prop-2-enoyl-piperazin-1-yl]-1-[2-(pentafluoro-λ^6-sulfanyl)phenyl]pyrido[2,3-d]pyrimidin-2-one]	0.149 | nda μM	359	–	–
C=CC(=O)N1CCN(c2nc(=O)n(-c3ncsc3C(C)C)c3nc(-c4ccccc4F)c(Cl)cc23)[C@@H](C)C1 [Example 55-19, 6-chloro-7-(2-fluorophenyl)-4-((2S)-2-methyl-4-(2-propenoyl)-1-piperazinyl)-1-(5-(2-propanyl)-1,3-thiazol-4-yl)pyrido[2,3-d]pyrimidin-2(1H)-one]	0.22 | nda μM	191	–	–
C=CC(=O)N1CCN(c2nc(=O)n(-c3c(C)ccnc3C(C)C)c3nc(-c4ccccc4F)c(Cl)cc23)C[C@H]1C (atropisomer, axis not shown; (M)) [Example 78-1, (M)-6-Chloro-7-(2-fluorophenyl)-1-(4-methyl-2-(2-propanyl)-3-pyridinyl)-4-((3R)-3-methyl-4-(2-propenoyl)-1-piperazinyl)pyrido[2,3-d]pyrimidin-2(1H)-one]	–	–	213	49

Other lines, results leading:

Coupled exchange IC50 (5 min) [1]	IC50 ([2]; Homo sapiens, MIA PaCa-2, 2 h) [nM]	IC50 ([1]; read-out: Coupled exchange IC50 (5 min)) [nM]	IC50 [2] [nM]	SMILES
0.292 | nda μM	271	–	–	C=CC(=O)N1CCN(c2nc(=O)n(-c3c(C)ncnc3C(C)C)c3nc(-c4cc(F)ccc4F)c(Cl)cc23)[C@@H](C)C1 [Example 55-39, 6-chloro-7-(2,5-difluorophenyl)-1-(4-methyl-6-(2-propanyl)-5-pyrimidinyl)-4-((2S)-2-methyl-4-(2-propenoyl)-1-piperazinyl)pyrido[2,3-d]pyrimidin-2(1H)-one]
0.213 | nda μM	180	–	–	C=CC(=O)N1CCN(c2nc(=O)n(-c3c(C)ccnc3C(C)C)c3nc(-c4cc(N)ccc4Cl)c(F)cc23)[C@@H](C)C1 (single isomer, unassigned) [Example 58-8-1]
0.098 | nda μM	79	–	–	C=CC(=O)N1CCN(c2nc(=O)n(-c3c(CC)ncnc3CC)c3nc(-c4c(O)cccc4F)c(Cl)cc23)[C@@H](C)C1 [Example 55-31, 6-chloro-1-(4,6-diethyl-5-pyrimidinyl)-7-(2-fluoro-6-hydroxyphenyl)-4-((2S)-2-methyl-4-(2-propenoyl)-1-piperazinyl)pyrido[2,3-d]pyrimidin-2(1H)-one]
0.445 | nda μM	666	–	–	C=CC(=O)N1CCN(c2nc(=O)n(-c3nonc3C(C)C)c3nc(-c4c(O)cccc4F)c(Cl)cc23)[C@@H](C)C1 [Example 54-52, 6-chloro-7-(2-fluoro-6-hydroxyphenyl)-4-((2S)-2-methyl-4-(2-propenoyl)-1-piperazinyl)-1-(4-(2-propanyl)-1,2,5-oxadiazol-3-yl)pyrido[2,3-d]pyrimidin-2(1H)-one]
0.045 | nda μM	95	–	–	C=CC(=O)N1CCN(c2nc(=O)n(-c3c(C)ccnc3C(C)C)c3nc(-c4c(O)cccc4F)c(Cl)cc23)C[C@H]1C (atropisomer, axis not shown; (M)) [Example 129, (M)-6-Chloro-7-(2-fluoro-6-hydroxyphenyl)-1-(4-methyl-2-(2-propanyl)-3-pyridinyl)-4-((3R)-3-methyl-4-(2-propenoyl)-1-piperazinyl)pyrido[2,3-d]pyrimidin-2(1H)-one]
0.606 | nda μM	1520	–	–	C=CC(=O)N1CCN(c2nc(=O)n(-c3c(C)ccnc3C(C)C)c3nc(-c4nc(N)ccc4Cl)c(F)cc23)C(C)C1 (atropisomer, axis not shown; (M)) [Example 65-1, (M)-7-(6-Amino-3-chloro-2-pyridinyl)-6-fluoro-1-(4-methyl-2-(2-propanyl)-3-pyridinyl)-4-((2S)-2-methyl-4-(2-propenoyl)-1-piperazinyl)pyrido[2,3-d]pyrimidin-2(1H)-one]
0.661 | nda μM	696	–	–	C=CC(=O)N1CCN(c2nc(=O)n(-c3ccccc3C(C)(C)C)c3nc(-c4c(O)cccc4F)c(F)cc23)[C@@H](C)C1 [Example 58-1, 6-Fluoro-7-(2-fluoro-6-hydroxyphenyl)-1-(2-(2-methyl-2-propanyl)phenyl)-4-((2S)-2-methyl-4-(2-propenoyl)-1-piperazinyl)pyrido[2,3-d]pyrimidin-2(1H)-one]
0.524 | nda μM	630	–	–	C=CC(=O)N1CCN(c2nc(=O)n(-c3c(C)ccnc3CC)c3nc(-c4c(O)cccc4F)c(F)cc23)[C@@H](C)C1 (single isomer, unassigned) [Example 57-1-1]
0.046 | nda μM	–	–	47	C=CC(=O)N1CCN(c2nc(=O)n(-c3c(C)ccnc3C(C)C)c3nc(-c4c(O)cccc4Cl)c(F)cc23)[C@@H](C)C1 (single isomer, unassigned) [Example 58-9-1]
0.664 | nda μM	241	–	–	C=CC(=O)N1CCN(c2nc(=O)n(-c3nccnc3C(C)C)c3nc(-c4c(O)cccc4F)c(F)cc23)[C@@H](C)C1 [Example 57-3, 6-fluoro-7-(2-fluoro-6-hydroxyphenyl)-4-((2S)-2-methyl-4-(2-propenoyl)-piperazinyl)-1-(3-(2-propanyl)-2-pyrazinyl)pyrido[2,3-d]pyrimidin-2(1H)-one]
